Reference: patent US10364245B2 (CHIESI FARMACEUTICI S.p.A., priority 2017, dated 2019)

Target: T1, p38 alpha (Homo sapiens, UniProt Q16539)
T1 construct: purchased Invitrogen PV3304
Experiment: P38 alpha enzyme inhibition assay (Alphascreen kinase activity assay)
Type: biochemical
Conditions: 100 pM p38 alpha, 2 hours preincubation at 25° C., 250 μM ATP, ATF-2 fusion protein; read-out: p38α inhibition
Description: P38 Alpha Enzyme Inhibition Assay
The inhibitory activity of compounds was determined using an Alphascreen® (Perkin Elmer) based kinase activity assay. Kinase reactions consisted of 25 mM HEPES pH 7.5, 10 mM MgCl2, 100 μM Na3VO4, 2 mM DTT, 0.05 mg/ml Tween 20, 100 pM p38 alpha (Invitrogen, PV3304), 1% DMSO and 0.3 μg/ml ATF-2 fusion protein (New England Biolabs, 9224). Compounds were incubated under these conditions for 2 hours, at 25° C., prior to the initiation of the kinase activity by the addition of the 250 μM ATP. Reaction volumes were 20 μL. After 1 hr at 25° C. reactions were stopped by the adding 10 μL of 25 mM HEPES pH 7.5 containing 62.5 mM EDTA, 0.05% Triton X-100, 10% BSA and 0.83 ng/uL anti-phospho-ATF2 antibody (Abcam, ab28812). Detection was performed by measuring luminescence following the addition of Alphascreen Donor beads (Perkin Elmer 6765300) and Protein A Alphascreen Acceptor beads (Perkin Elmer 6760137), both at a final concentration of 20 ug/ml. IC50 values were determined from concentration-response curves.

T1 sequence (Q16539 whole entry): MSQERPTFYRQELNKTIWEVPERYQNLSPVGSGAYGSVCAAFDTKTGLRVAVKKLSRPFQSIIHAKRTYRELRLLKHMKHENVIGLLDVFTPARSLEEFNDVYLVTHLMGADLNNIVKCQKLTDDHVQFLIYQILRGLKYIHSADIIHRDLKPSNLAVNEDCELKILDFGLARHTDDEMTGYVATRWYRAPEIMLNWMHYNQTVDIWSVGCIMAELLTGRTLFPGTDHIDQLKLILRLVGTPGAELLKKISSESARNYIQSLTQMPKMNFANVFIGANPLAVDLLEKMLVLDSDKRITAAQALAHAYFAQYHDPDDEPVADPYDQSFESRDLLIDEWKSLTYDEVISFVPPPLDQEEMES

Row | SMILES | IC50 [nM]
1 | COC(C)(C)c1nnc2ccc(O[C@@H]3CC[C@H](NC(=O)Nc4cc(C(C)(C)C)nc(C(=O)NCC(C)(C)N(C)C)n4)c4ccccc43)cn12 [Example 141, 4-(tert-butyl)-N-(2-(dimethylamino)-2-mcthylpropyl)-6-(3-((1S,4R)-4-((3-(2-methoxypropan-2-yl)-[1,2,4]triazolo[4,3-a]pyridin-6-yl)oxy)-1,2,3,4-tetrahydronaphthalen-1-yl)ureido)pyrimidine-2-carboxamide] | 1 to 10
2 | CCC(CC)(CNC(=O)c1nc(NC(=O)N[C@H]2CC[C@@H](Oc3ccc4nnc(C(C)(C)COC)n4c3)c3ccccc32)cc(C(C)(C)C)n1)N(C)C [Example 147, 4-(tert-butyl)-N-(2-(dimethylamino)-2-ethylbutyl)-6-(3-((1S,4R)-4-((3-(1-methoxy-2-methylpropan-2-yl)-[1,2,4]triazolo[4,3-a]pyridin-6-yl)oxy)-1,2,3,4-tetrahydronaphthalen-1-yl)ureido)pyrimidine-2-carboxamide] | 1 to 10
3 | CCN(C)C(C)(C)CNC(=O)c1nc(NC(=O)N[C@H]2CC[C@@H](Oc3ccc4nnc(C(C)(C)C)n4c3)c3ccccc32)cc(C(C)(C)C)n1 [Example 148, 4-(tert-butyl)-6-(3-((1S,4R)-4-((3-(tert-butyl)-[1,2,4]triazolo[4,3-a]pyridin-6-yl)oxy)-1,2,3,4-tetrahydronaphthalen-1-yl)ureido)-N-(2-(ethyl(methyl)amino)-2-methylpropyl)pyrimidine-2-carboxamide] | 1 to 10
4 | COCC(C)(C)c1nnc2ccc(O[C@@H]3CC[C@H](NC(=O)Nc4cc(C(C)(C)C)nc(C(=O)NCC5(N(C)C)CCCCC5)n4)c4ccccc43)cn12 [Example 153, 4-(tert-butyl)-N-((1-(dimethylamino)cyclohexyl)methyl)-6-(3-((1S,4R)-4-((3-(1-methoxy-2-methylpropan-2-yl)-[1,2,4]triazolo[4,3-a]pyridin-6-yl)oxy)-1,2,3,4-tetrahydronaphthalen-1-yl)ureido)pyrimidine-2-carboxamide] | 1 to 10
5 | CN(C)C1(CNC(=O)c2nc(NC(=O)N[C@H]3CC[C@@H](Oc4ccc5nnc(C(C)(C)C)n5c4)c4ccccc43)cc(C(C)(C)C)n2)CCOCC1 [Example 160, 4-(tert-butyl)-6-(3-((1S,4R)-4-((3-(tert-butyl)-[1,2,4]triazolo[4,3-a]pyridm-6-yl)oxy)-1,2,3,4-tetrahydronaphthalen-1-yl)ureido)-N-((4-(dimethylamino)-tetrahydro-2H-pyran-4-yl)methyl)pyrimidine-2-carboxamide] | 1 to 10
6 | CN(C)C1(CNC(=O)c2nc(NC(=O)N[C@H]3CC[C@@H](Oc4ccc5nnc(C(C)(C)C)n5c4)c4ccccc43)cc(C(C)(C)C)n2)CCCCC1 [Example 161, 4-(tert-butyl)-6-(3-((1S,4R)-4-((3-(tert-butyl)-[1,2,4]-triazolo[4,3-a]pyridin-6-yl)oxy)-1,2,3,4-tetrahydronaphthalen-1-yl)ureido)-N-((1-(dimethylamino)-cyclohexyl)methyl)pyrimidine-2-carboxamide] | 1 to 10
7 | CN(C)C1(CNC(=O)c2nc(NC(=O)N[C@H]3CC[C@@H](Oc4ccc5nnc(C(C)(C)C)n5c4)c4ccccc43)cc(C(C)(C)C)n2)CCCC1 [Example 163, 4-(tert-butyl)-6-(3-((1S,4R)-4-((3-(tert-butyl)-[1,2,4]-triazolo[4,3-a]pyridin-6-yl)oxy)-1,2,3,4-tetrahydronaphthalen-1-yl)ureido)-N-((1-(dimethylamino)-cyclopentyl)methyl)-pyrimidine-2-carboxamide] | 1 to 10

Continued, values first:

Row | IC50 [nM] | SMILES
8 | 1 to 10 | COC(C)(C)c1nnc2ccc(O[C@@H]3CC[C@H](NC(=O)Nc4cc(C(C)(C)C)nc(COCCN5CCOCC5)n4)c4ccccc43)cn12 [Example 144, 1-(6-(tert-butyl)-2-((2-morpholinoethoxy)-methyl)pyrimidin-4-yl)-3-((1S,4R)-4-((3-(2-methoxypropan-2-yl)-[1,2,4]triazolo[4,3-a]pyridin-6-yl)oxy)-1,2,3,4-tetrahydronaphthalen-1-yl)urea]
9 | 1 to 10 | COCC(C)(C)c1nnc2ccc(O[C@@H]3CC[C@H](NC(=O)Nc4cc(C(C)(C)C)nc(C(=O)NCC5(N(C)C)CCOCC5)n4)c4ccccc43)cn12 [Example 150, 4-(tert-butyl)-N-((4-(dimethylamino)-tetrahydro-2H-pyran-4-yl)methyl)-6-(3-((1S,4R)-4-((3-(1-methoxy-2-methylpropan-2-yl)-[1,2,4]triazolo[4,3-a]pyridin-6-yl)oxy)-1,2,3,4-tetrahydronaphthalen-1-yl)ureido)pyrimidine-2-carboxamide]
10 | 1 to 10 | CCN(C)C(C)(C)CNC(=O)c1nc(NC(=O)N[C@H]2CC[C@@H](Oc3ccc4nnc(C(C)(C)OC)n4c3)c3ccccc32)cc(C(C)(C)C)n1 [Example 156, 4-(tert-butyl)-N-(2-(ethyl(methyl)amino)-2-methylpropyl)-6-(3-((1S,4R)-4-((3-(2-methoxypropan-2-yl)-[1,2,4]triazolo[4,3-a]pyridin-6-yl)oxy)-1,2,3,4-tetrahydronaphthalen-1-yl)ureido)pyrimidine-2-carboxamide]
11 | 1 to 10 | COC(C)(C)c1nnc2ccc(O[C@@H]3CC[C@H](NC(=O)Nc4cc(C(C)(C)C)nc(C(=O)NCC(C)(C)N5CCN(C)CC5)n4)c4ccccc43)cn12 [Example 157, 4-(tert-butyl)-6-(3-((1S,4R)-4-((3-(2-methoxypropan-2-yl)-[1,2,4]triazolo[4,3-a]pyridin-6-yl)oxy)-1,2,3,4-tetrahydronaphthalen-1-yl)ureido)-N-(2-methyl-2-(4-methylpiperazin-1-yl)propyl)pyrimidine-2-carboxamide]
12 | 1 to 10 | CN(C)C1(CNC(=O)c2nc(NC(=O)N[C@H]3CC[C@@H](Oc4ccc5nnc(C(C)(C)C)n5c4)c4ccccc43)cc(C(C)(C)C)n2)CCC1 [Example 162, 4-(tert-butyl)-6-(3-((1S,4R)-4-((3-(tert-butyl)-[1,2,4]triazolo[4,3-a]pyridin-6-yl)oxy)-1,2,3,4-tetrahydronaphthalen-1-yl)ureido)-N-((1-(dimethylamino)-cyclobutyl)methyl)pyrimidine-2-carboxamide]
13 | 1 to 10 | CN(CCNC(=O)c1nc(NC(=O)N[C@H]2CC[C@@H](Oc3ccc4nnc(C(C)(C)C)n4c3)c3ccccc32)cc(C(C)(C)C)n1)C1CC1 [Example 164, 4-(tert-butyl)-6-(3-((1S,4R)-4-((3-(tert-butyl)-[1,2,4]triazolo[4,3-a]pyridin-6-yl)oxy)-1,2,3,4-tetrahydronaphthalen-1-yl)ureido)-N-(2-(cyclopropyl(methyl)-amino)ethyl)pyrimidine-2-carboxamide]
14 | 1 to 10 | CN(C)[C@H]1CCCC[C@@H]1NC(=O)c1nc(NC(=O)N[C@H]2CC[C@@H](Oc3ccc4nnc(C(C)(C)C)n4c3)c3ccccc32)cc(C(C)(C)C)n1 [Example 165, 4-(tert-butyl)-6-(3-((1S,4R)-4-((3-(tert-butyl)-[1,2,4]triazolo[4,3-a]pyridin-6-yl)oxy)-1,2,3,4-tetrahydronaphthalen-1-yl)ureido)-N-((1S,2S)-2-(dimethylamino)-cyclohexyl)pyrimidine-2-carboxamide]
